Laboratory results: patent US20200289527A1, “FORMULATION CONTAINING A-DECARBONIZED-5a ANDROSTANE COMPOUND FOR INCREASING WHITE BLOOD CELL AND USE THEREOF” (priority 2017, published 2020)
Like-named read-outs stand apart in the source and are kept apart here. Marks after values point to notes of the source that are not given here.

Tests used:
[1] = tested on: white blood cells in mice bearing Lewis lung tumor
From the text: The vigorously growing tumor cells were taken and prepared into cell suspension with a concentration of about 5-10×10^6/ml by homogenization under sterile condition.
At the beginning of the experiment, 10 mice were randomly sampled for blood collection by posterior orbital venous plexus puncture, and an automatic blood cell analyzer (HEMAVET-950) was used to conduct the routine blood test. Then the blood was collected for the routine blood test by the same method on the 8th and 12th days after the last administration of cyclophosphamide.

[2] = tested on: white blood cells in tumor patients; conditions: for Effect of increasing WBC (C1/Czs): all 10 subjects, 15-45 mg total daily dose, Day 0 = 100%; for average extent of increasing white blood cells: average of subjects
Protocol: Blood was collected on the day before the administration, and the routine blood test was conducted to determine the number of white blood cells (Czs) before the subjects were treated with the medicine of the present invention.
10 subjects took ACP at different administrated frequency and dose every day (see Table 2). Blood was collected from 10 subjects at Day 8, 15, 22, and 28 for routine blood test.

[3] = chemotherapy control group, CTX 150/100 mg/kg ip, reference = 100%
[4] = subject GBYI, Day 0 count 4.3, once a day, total daily dose 15 mg
[5] = subject LXJV, Day 0 count 2.7, three times a day, total daily dose 30 mg

Question: `O=P1(N(CCCl)CCCl)NCCCO1` (centres unmarked) [CTX, cyclophosphamide] was tested. Which “effect on white blood cells of peripheral blood in mice” value ([1]; chemotherapy control group) did it give?
Answer: The value was “caused a decrease of white blood cells of peripheral blood in mice”.

Question: And the “Day 8 (10^3 WBC/μl)” value ([1]; chemotherapy control group, CTX 150/100 mg/kg ip, 8th day after last CTX)?
Answer: Its value is 0.41 ± 0.07 10^3 WBC/μl.

Question: What about the “Day 12 (10^3 WBC/μl)” value ([1]; chemotherapy control group, CTX 150/100 mg/kg ip, 12th day after last CTX) of the same molecule?
Answer: The value was 1.48 ± 0.37 10^3 WBC/μl.

Question: And the “Day 8 (%)” value [1, 3]?
Answer: Its value is 100%.

Question: And the “Day 12 (%)” value [1, 3]?
Answer: The value was 100%.

Question: `C#C[C@@]1(OC(C)=O)C[C@@H]2CC[C@@H]3[C@H](CC[C@@]4(C)[C@H]3CC[C@]4(C#C)OC(C)=O)[C@@]2(C)C1` [ACP1, 2α,17α-diethynyl-A-decarbonized-5α-androstane-2β,17β-dihydroxyl diacetate compound] was tested. Which “Day 8 (10^3 WBC/μl)” value ([1]; mouse, in vivo, 5 mg/kg) did it give?
Answer: The value was 4.21 ± 1.22 10^3 WBC/μl.

Question: What about the “Day 8 (%)” value ([1]; mouse, in vivo, 5 mg/kg) of the same molecule?
Answer: Its value is 1027%*.

Question: And the “Day 12 (10^3 WBC/μl)” value ([1]; mouse, in vivo, 5 mg/kg)?
Answer: The value was 4.32 ± 1.29 10^3 WBC/μl.

Question: What about the “Day 12 (%)” value ([1]; mouse, in vivo, 5 mg/kg) of the same molecule?
Answer: The value was 292%*.

Question: What about the “Effect of increasing WBC (C1/Czs)” value ([2]; Day 8) of the same molecule?
Answer: The value was 146%.

Question: And the “extent of increasing white blood cells (Cl/Czs-100%)” value ([2]; Day 8, compared with before treatment)?
Answer: The value was “about 50%”.

Question: What about the “Effect of increasing WBC (C1/Czs)” value ([2]; Day 15) of the same molecule?
Answer: The value was 180%.

Question: And the “average extent of increasing white blood cells” value ([2]; Day 15)?
Answer: Its value is “about 80%”.

Question: What about the “maximum extent of increasing white blood cells” value ([2]; Day 15, maximum among subjects) of the same molecule?
Answer: Its value is “about 178%”.

Question: And the “extent of increasing white blood cells” value ([2]; Day 22)?
Answer: Its value is “about 63%”.

Question: What about the “Effect of increasing WBC (C1/Czs)” value ([2]; Day 22) of the same molecule?
Answer: Its value is 163%.

Question: And the “Effect of increasing WBC (C1/Czs)” value ([2]; Day 28)?
Answer: Its value is 149%.

Question: What about the “average extent of increasing white blood cells” value ([2]; Day 28) of the same molecule?
Answer: The value was “about 50%”.

Question: What about the “WBC count during administration, Day 8” value [2, 4] of the same molecule?
Answer: The value was 5.8 10^9/L.

Question: And the “WBC count during administration, Day 15” value [2, 4]?
Answer: The value was 6.9 10^9/L.

Question: What about the “WBC count during administration, Day 22” value [2, 4] of the same molecule?
Answer: Its value is 6.3 10^9/L.

Question: What about the “WBC count during administration, Day 28” value [2, 4] of the same molecule?
Answer: Its value is 7.0 10^9/L.

Question: What about the “WBC count during administration, Day 8” value [2, 5] of the same molecule?
Answer: Its value is 5.9 10^9/L.

Question: What about the “WBC count during administration, Day 15” value [2, 5] of the same molecule?
Answer: The value was 7.5 10^9/L.

Question: What about the “WBC count during administration, Day 22” value [2, 5] of the same molecule?
Answer: The value was 6.0 10^9/L.

Question: What about the “WBC count during administration, Day 28” value [2, 5] of the same molecule?
Answer: The value was 6.1 10^9/L.
